Results from ChEMBL document CHEMBL1268974, “Synthesis and antitumour activity of glycyrrhetinic acid derivatives” (Bioorg Med Chem, 2010).

What was measured:
Assay type in all cases: functional, cell-based
8505C = experiment: Cytotoxicity against human 8505C cells after 96 hrs by SRB assay
[1] = Cytotoxicity against human A253 cells after 96 hrs by SRB assay
A2780 = experiment: Cytotoxicity against human A2780 cells after 96 hrs by SRB assay
A549 = experiment: Cytotoxicity against human A549 cells after 96 hrs by SRB assay
DLD-1 = experiment: Cytotoxicity against human DLD1 cells after 96 hrs by SRB assay
[2] = Cytotoxicity against human Lipo cells after 96 hrs by SRB assay
[3] = Cytotoxicity against human 518A2 cells after 96 hrs by SRB assay; settings: 518A2, 96 h
A-431 = experiment: Cytotoxicity against human A431 cells after 96 hrs by SRB assay; settings: A-431, 96 h
FaDu = experiment: Cytotoxicity against human FADU cells after 96 hrs by SRB assay
HCT-116 = experiment: Cytotoxicity against human HCT116 cells after 96 hrs by SRB assay; settings: HCT-116, 96 h
HCT-8 = experiment: Cytotoxicity against human HCT8 cells after 96 hrs by SRB assay; settings: HCT-8, 96 h
HT-29 = experiment: Cytotoxicity against human HT-29 cells after 96 hrs by SRB assay; settings: HT-29, 96 h
MCF7 = experiment: Cytotoxicity against human MCF7 cells after 96 hrs by SRB assay
SW-1736 = experiment: Cytotoxicity against human SW1736 cells after 96 hrs by SRB assay
SW480 = experiment: Cytotoxicity against human SW480 cells after 96 hrs by SRB assay; settings: SW480, 96 h

| Structure (SMILES) | IC50 (8505C; Homo sapiens, 8505C, 96 h) [µM] | IC50 ([1]; Homo sapiens, A253, 96 h) [µM] | IC50 (A2780; Homo sapiens, A2780, 96 h) [µM] | IC50 (A549; Homo sapiens, A549, 96 h) [µM] | IC50 (DLD-1; Homo sapiens, DLD-1, 96 h) [µM] | IC50 ([2]; Homo sapiens, Lipo, 96 h) [µM] | further results |
| --- | --- | --- | --- | --- | --- | --- | --- |
| CC(C)OC(=O)[C@@]1(C)CC[C@]2(C)CC[C@]3(C)C(=CC(=O)[C@@H]4[C@@]5(C)CC[C@H](OC(=O)CCN)C(C)(C)[C@@H]5CC[C@]43C)[C@@H]2C1 | 1.96 | 2.68 | 1.31 | 1.78 | 3.52 | 3.49 | – |
| COC(=O)[C@@]1(C)CC[C@]2(C)CC[C@]3(C)C(=CC(=O)[C@@H]4[C@@]5(C)CC[C@H](OC(=O)[C@H](C)N)C(C)(C)[C@@H]5CC[C@]43C)[C@@H]2C1 [listing 1 of 2 here] | 4.31 | 3.61 | 2.98 | 2.77 | 4.49 | 4.3 | IC50 [3]: 3.54 µM; IC50 (A-431): 3.48 µM; IC50 (FaDu): 4.52 µM; IC50 (HCT-116): 2.74 µM; IC50 (HCT-8): 2.8 µM; IC50 (HT-29): 2.87 µM; IC50 (MCF7; Homo sapiens, MCF7, 96 h): 3.54 µM; IC50 (SW-1736; Homo sapiens, SW-1736, 96 h): 3.22 µM; IC50 (SW480): 3.52 µM |
| COC(=O)[C@@]1(C)CC[C@]2(C)CC[C@]3(C)C(=CC(=O)[C@@H]4[C@@]5(C)CC[C@H](OC(=O)CN)C(C)(C)[C@@H]5CC[C@]43C)[C@@H]2C1 [listing 1 of 2 here] | – | – | – | – | – | – | IC50 (8505C; 8505c): 5.71 µM; IC50 ([1]; a253): 5.5 µM; IC50 (A2780; a2780): 4.32 µM; IC50 (A549; a549): 5.54 µM; IC50 (DLD-1; dld-1): 6.42 µM; IC50 ([2]; lipo): 5.92 µM; IC50 (MCF7; mcf7): 5.73 µM; IC50 (SW-1736; sw-1736): 5.62 µM |
| C[C@H](N)C(=O)O[C@H]1CC[C@]2(C)[C@H]3C(=O)C=C4[C@@H]5C[C@@](C)(C(=O)OCc6ccccc6)CC[C@]5(C)CC[C@@]4(C)[C@]3(C)CC[C@H]2C1(C)C | 3.1 | 3.49 | 2.85 | 3.51 | 5.02 | 3.57 | – |
| COC(=O)[C@@]1(C)CC[C@]2(C)CC[C@]3(C)C(=CC(=O)[C@@H]4[C@@]5(C)CC[C@H](OC(=O)[C@H](C)N)C(C)(C)[C@@H]5CC[C@]43C)[C@@H]2C1 [listing 2 of 2 here] | – | – | – | – | – | – | IC50 (8505C; 8505c): 3.58 µM; IC50 ([1]; a253): 3.5 µM; IC50 (A2780; a2780): 2.31 µM; IC50 (A549; a549): 3.52 µM; IC50 (DLD-1; dld-1): 3.61 µM; IC50 ([2]; lipo): 3.52 µM; IC50 (MCF7; mcf7): 3.89 µM; IC50 (SW-1736; sw-1736): 3.98 µM |
| COC(=O)[C@@]1(C)CC[C@]2(C)CC[C@]3(C)C(=CC(=O)[C@@H]4[C@@]5(C)CC[C@H](OC(=O)CCN)C(C)(C)[C@@H]5CC[C@]43C)[C@@H]2C1 [listing 1 of 2 here] | – | – | – | – | – | – | IC50 (8505C; 8505c): 2.51 µM; IC50 ([1]; a253): 2.51 µM; IC50 (A2780; a2780): 1.56 µM; IC50 (A549; a549): 1.61 µM; IC50 (DLD-1; dld-1): 3.52 µM; IC50 ([2]; lipo): 3.55 µM; IC50 (MCF7; mcf7): 2.43 µM; IC50 (SW-1736; sw-1736): 2.48 µM |
| COC(=O)[C@@]1(C)CC[C@]2(C)CC[C@]3(C)C(=CC(=O)[C@@H]4[C@@]5(C)CC[C@H](OC(=O)CN)C(C)(C)[C@@H]5CC[C@]43C)[C@@H]2C1 [listing 2 of 2 here] | 7.45 | 6.26 | 5.99 | 6.42 | 8.59 | 7.54 | IC50 (MCF7; Homo sapiens, MCF7, 96 h): 7.1 µM; IC50 (SW-1736; Homo sapiens, SW-1736, 96 h): 6.33 µM |
| C[C@H](N)C(=O)O[C@H]1CC[C@]2(C)[C@H]3C(=O)C=C4[C@@H]5C[C@@](C)(C(=O)O)CC[C@]5(C)CC[C@@]4(C)[C@]3(C)CC[C@H]2C1(C)C | > 30 | > 30 | > 30 | > 30 | > 30 | > 30 | – |
| COC(=O)[C@@]1(C)CC[C@]2(C)CC[C@]3(C)C(=CC(=O)[C@@H]4[C@@]5(C)CC[C@H](OC(=O)CCN)C(C)(C)[C@@H]5CC[C@]43C)[C@@H]2C1 [listing 2 of 2 here] | 2.55 | 2.5 | 1.72 | 2.4 | 2.51 | 2.52 | IC50 (MCF7; Homo sapiens, MCF7, 96 h): 2.5 µM; IC50 (SW-1736; Homo sapiens, SW-1736, 96 h): 1.82 µM |
| COC(=O)[C@@]1(C)CC[C@]2(C)CC[C@]3(C)C(=CC(=O)[C@@H]4[C@@]5(C)CC[C@H](OC(=O)[C@@H](C)N)C(C)(C)[C@@H]5CC[C@]43C)[C@@H]2C1 | 2.92 | 2.26 | 2.24 | 2.26 | 3.35 | 3.56 | IC50 [3]: 2.26 µM; IC50 (A-431): 2.36 µM; IC50 (FaDu): 2.25 µM; IC50 (HCT-116): 2.25 µM; IC50 (HCT-8): 2.26 µM; IC50 (HT-29): 2.8 µM; IC50 (MCF7; Homo sapiens, MCF7, 96 h): 2.25 µM; IC50 (SW-1736; Homo sapiens, SW-1736, 96 h): 2.25 µM; IC50 (SW480): 3.52 µM |
| CC1(C)[C@@H](OC(=O)CCN)CC[C@]2(C)[C@H]3C(=O)C=C4[C@@H]5C[C@@](C)(C(=O)OCc6ccccc6)CC[C@]5(C)CC[C@@]4(C)[C@]3(C)CC[C@@H]12 | 3.19 | 3.05 | 1.73 | 2.76 | 4.54 | 3.25 | – |
| CC1(C)[C@@H](OC(=O)CCN)CC[C@]2(C)[C@H]3C(=O)C=C4[C@@H]5C[C@@](C)(C(=O)O)CC[C@]5(C)CC[C@@]4(C)[C@]3(C)CC[C@@H]12 | > 30 | > 30 | > 30 | > 30 | > 30 | > 30 | – |
| CC1(C)[C@@H](OC(=O)CN)CC[C@]2(C)[C@H]3C(=O)C=C4[C@@H]5C[C@@](C)(C(=O)OCc6ccccc6)CC[C@]5(C)CC[C@@]4(C)[C@]3(C)CC[C@@H]12 | 4.79 | 5.03 | 3.54 | 5.07 | 4.54 | 4.81 | – |
| CCOC(=O)[C@@]1(C)CC[C@]2(C)CC[C@]3(C)C(=CC(=O)[C@@H]4[C@@]5(C)CC[C@H](OC(=O)[C@@H](C)N)C(C)(C)[C@@H]5CC[C@]43C)[C@@H]2C1 | 4.43 | 2.55 | 3.26 | 4.35 | 4.49 | 4.13 | IC50 [3]: 2.76 µM; IC50 (A-431): 2.76 µM; IC50 (FaDu): 3.9 µM; IC50 (HCT-116): 4.25 µM; IC50 (HCT-8): 2.42 µM; IC50 (HT-29): 4.38 µM; IC50 (MCF7; Homo sapiens, MCF7, 96 h): 3.55 µM; IC50 (SW-1736; Homo sapiens, SW-1736, 96 h): 4.11 µM; IC50 (SW480): 3.32 µM |
| CCOC(=O)[C@@]1(C)CC[C@]2(C)CC[C@]3(C)C(=CC(=O)[C@@H]4[C@@]5(C)CC[C@H](OC(=O)CCN)C(C)(C)[C@@H]5CC[C@]43C)[C@@H]2C1 | 2.32 | 2.23 | 1.77 | 2.18 | 2.74 | 2.38 | – |
| CCOC(=O)[C@@]1(C)CC[C@]2(C)CC[C@]3(C)C(=CC(=O)[C@@H]4[C@@]5(C)CC[C@H](OC(=O)CN)C(C)(C)[C@@H]5CC[C@]43C)[C@@H]2C1 | 5.32 | 3.59 | 3.9 | 5.39 | 5.61 | 4.32 | – |
| CC1(C)[C@@H](OC(=O)CN)CC[C@]2(C)[C@H]3C(=O)C=C4[C@@H]5C[C@@](C)(C(=O)O)CC[C@]5(C)CC[C@@]4(C)[C@]3(C)CC[C@@H]12 | > 30 | > 30 | > 30 | > 30 | > 30 | > 30 | – |
| CC(C)OC(=O)[C@@]1(C)CC[C@]2(C)CC[C@]3(C)C(=CC(=O)[C@@H]4[C@@]5(C)CC[C@H](OC(=O)CN)C(C)(C)[C@@H]5CC[C@]43C)[C@@H]2C1 | 2.76 | 2.01 | 2.24 | 2.65 | 2.54 | 2.74 | – |
